Measurements as given in patent US4350705A, “Cyclohexane derivatives, process for preparation thereof and medicines containing these cyclohexane derivatives” (Eisai Co., Ltd., priority 1979, dated 1982).
Like-named read-outs stand apart in the source and are kept apart here.

How the values were obtained:
[1] = test system: spontaneous hypertensive rats (SHR); assay: Hypotensive Action: systolic pressure from tail artery of SHR after oral administration 10 mg/Kg once a day for 2 days; format: in vivo, rat; details: oral 10 mg/Kg, * = significant vs control, P = 0.01
Description: A test compound suspended in a gum arabic solution was orally administered once a day, at a dose of 10 mg/Kg (body weight), for 2 days, to groups of spontaneous hypertensive rats (hereinafter referred to as "SHR") (about 30 weeks old; systolic pressure=about 230 mm Hg), each group consisting of 6 rats.
The systolic pressure was measured from the tail artery of SHR under no anesthesia before the administration and 6 hours after the time of administration by using a continuous tonometer (Shimazu Tonometer Model SCS-301 manufactured by Shimazu Seisakusho K.K.). An aqueous solution of gum arabic alone was administered to the rats of the control group.

[2] = test system: spontaneous hypertensive rats (SHR); assay: as above; format: in vivo, rat; details: oral 10 mg/Kg, * = significant vs control, P = 0.01; remark: listed apart in the source
[3] = Acute Toxicity: LD50 in rats of the SD series, 14 days observation; format: in vivo; details: rat, in vivo, male
From the text: (§1) Groups of rats of the SD series (body weight=160-280 g; about 8 weeks old), each group consisting of 5 rats, were used. After administration of the test compound, the death or survival was examined during a period of 14 days to determine the LD50 value.

rats of the SD series = assay: as above; format: in vivo; details: female
From the text: as §1

[4] = ip, abdominal administration, read-out: LD50, Abdominal Administration, male
[5] = oral, read-out: LD50, Oral Administration, male

## O=C(CCc1ccc2c(c1)OC(c1ccccc1)(c1ccccc1)O2)C1C(=O)CC(c2ccccc2)CC1=O (stereo not drawn)
[1]
  Blood Pressure (mm Hg) on First Day, after 6 hours: 202 ± 5 mm Hg
  Blood Pressure (mm Hg) on Second Day, after 6 hours: 192 ± 5 mm Hg
  Blood Pressure (mm Hg) on Second Day, before administration: 210 ± 10 mm Hg
[2]
  Blood Pressure (mm Hg) on Second Day, after 24 hours: 208 ± 5 mm Hg

## O=C(CCc1ccc2c(c1)OCO2)C1C(=O)CC(c2ccccc2)CC1=O (stereo not drawn) [drawing 33]
[3]; [4]
  LD50 at 336 h: > 500 mg/kg
[3]; [5]
  LD50 at 336 h: > 4000 mg/kg
Rats of the SD series
  LD50, Abdominal Administration, female: > 500
  LD50, Oral Administration, female: > 4000

## O=C(Cc1ccc(Cl)cc1)C1C(=O)CC(c2ccccc2)CC1=O (stereo not drawn)
[1]
  Blood Pressure (mm Hg) on First Day, after 6 hours: 215 ± 1 mm Hg
  Blood Pressure (mm Hg) on Second Day, after 6 hours: 215 ± 2 mm Hg
  Blood Pressure (mm Hg) on Second Day, before administration: 217 ± 4 mm Hg
[2]
  Blood Pressure (mm Hg) on Second Day, after 24 hours: 222 ± 4 mm Hg

## CC1(C)Oc2ccc(CCC(=O)C3C(=O)CC(c4ccccc4)CC3=O)cc2O1 (stereo not drawn)
[1]
  Blood Pressure (mm Hg) on First Day, after 6 hours: 207 ± 3 mm Hg
  Blood Pressure (mm Hg) on Second Day, after 6 hours: 190 ± 5 mm Hg
  Blood Pressure (mm Hg) on Second Day, before administration: 202 ± 7 mm Hg
[2]
  Blood Pressure (mm Hg) on Second Day, after 24 hours: 192 ± 7 mm Hg

## Cc1ccc(C2CC(=O)C(C(=O)CCc3ccc4c(c3)OCO4)C(=O)C2)cc1 (stereo not drawn) [drawing 34]
[3]; [4]
  LD50 at 336 h: > 500 mg/kg
[3]; [5]
  LD50 at 336 h: > 4000 mg/kg
Rats of the SD series
  LD50, Abdominal Administration, female: > 500
  LD50, Oral Administration, female: > 4000

## O=C(CCc1ccccc1Cl)C1C(=O)CC(c2ccccc2)CC1=O (stereo not drawn)
[1]
  Blood Pressure (mm Hg) on First Day, after 6 hours: 200 ± 3 mm Hg
  Blood Pressure (mm Hg) on Second Day, after 6 hours: 213 ± 4 mm Hg
  Blood Pressure (mm Hg) on Second Day, before administration: 208 ± 9 mm Hg
[2]
  Blood Pressure (mm Hg) on Second Day, after 24 hours: 193 ± 1 mm Hg

## Cc1ccc(C2CC(=O)C(C(=O)CCc3ccc4c(c3)OCO4)C(=O)C2)cc1 (stereo not drawn) [drawing 21]
[1]
  Blood Pressure (mm Hg) on First Day, after 6 hours: 198 ± 5 mm Hg
  Blood Pressure (mm Hg) on Second Day, after 6 hours: 188 ± 5 mm Hg
  Blood Pressure (mm Hg) on Second Day, before administration: 200 ± 10 mm Hg
[2]
  Blood Pressure (mm Hg) on Second Day, after 24 hours: 192 ± 5 mm Hg

## COc1ccc(C2CC(=O)C(C(=O)CCc3ccc(O)c(O)c3)C(=O)C2)cc1 (stereo not drawn)
[1]
  Blood Pressure (mm Hg) on First Day, after 6 hours: 212 ± 3 mm Hg
  Blood Pressure (mm Hg) on Second Day, after 6 hours: 220 ± 1 mm Hg
  Blood Pressure (mm Hg) on Second Day, before administration: 225 ± 1 mm Hg
[2]
  Blood Pressure (mm Hg) on Second Day, after 24 hours: 228 ± 2 mm Hg

## COc1ccc(CCC(=O)C2C(=O)CC(c3ccccc3)CC2=O)cc1 (stereo not drawn)
[1]
  Blood Pressure (mm Hg) on First Day, after 6 hours: 209 ± 5 mm Hg
  Blood Pressure (mm Hg) on Second Day, after 6 hours: 210 ± 5 mm Hg
  Blood Pressure (mm Hg) on Second Day, before administration: 213 ± 6 mm Hg
[2]
  Blood Pressure (mm Hg) on Second Day, after 24 hours: 212 ± 6 mm Hg

## O=C(CCc1ccc2c(c1)OCO2)C1C(=O)CC(c2ccccc2)CC1=O (stereo not drawn) [drawing 20]
[1]
  Blood Pressure (mm Hg) on First Day, after 6 hours: 205 ± 7 mm Hg
  Blood Pressure (mm Hg) on Second Day, after 6 hours: 204 ± 6 mm Hg
  Blood Pressure (mm Hg) on Second Day, before administration: 218 ± 7 mm Hg
[2]
  Blood Pressure (mm Hg) on Second Day, after 24 hours: 207 ± 7 mm Hg

## O=C(CCc1ccc(O)c(O)c1)C1C(=O)CC(c2ccccc2)CC1=O (stereo not drawn)
[1]
  Blood Pressure (mm Hg) on First Day, after 6 hours: 204 ± 5 mm Hg
  Blood Pressure (mm Hg) on Second Day, after 6 hours: 200 ± 5 mm Hg
  Blood Pressure (mm Hg) on Second Day, before administration: 209 ± 5 mm Hg
[2]
  Blood Pressure (mm Hg) on Second Day, after 24 hours: 205 ± 5 mm Hg

## O=C(Cc1ccccc1)C1C(=O)CC(c2ccccc2)CC1=O (stereo not drawn) [drawing 31]
[1]
  Blood Pressure (mm Hg) on First Day, after 6 hours: 183 ± 3 mm Hg
  Blood Pressure (mm Hg) on Second Day, after 6 hours: 183 ± 3 mm Hg
  Blood Pressure (mm Hg) on Second Day, before administration: 203 ± 3 mm Hg
[2]
  Blood Pressure (mm Hg) on Second Day, after 24 hours: 193 ± 7 mm Hg

## CC(=O)Oc1ccc(CCC(=O)C2C(=O)CC(c3ccccc3)CC2=O)cc1OC(C)=O (stereo not drawn)
[1]
  Blood Pressure (mm Hg) on First Day, after 6 hours: 195 ± 10 mm Hg
  Blood Pressure (mm Hg) on Second Day, after 6 hours: 195 ± 10 mm Hg
  Blood Pressure (mm Hg) on Second Day, before administration: 222± 5 mm Hg
[2]
  Blood Pressure (mm Hg) on Second Day, after 24 hours: 212 ± 5 mm Hg

## O=C(Cc1ccccc1)C1C(=O)CC(c2ccccc2)CC1=O (stereo not drawn) [drawing 35]
[3]; [4]
  LD50 at 336 h: > 500 mg/kg
[3]; [5]
  LD50 at 336 h: > 4000 mg/kg
Rats of the SD series
  LD50, Abdominal Administration, female: > 500
  LD50, Oral Administration, female: > 4000

## COc1ccccc1C1CC(=O)C(C(=O)CCc2ccc3c(c2)OCO3)C(=O)C1 (stereo not drawn)
[1]
  Blood Pressure (mm Hg) on First Day, after 6 hours: 210 ± 5 mm Hg
  Blood Pressure (mm Hg) on Second Day, after 6 hours: 205 ± 5 mm Hg
  Blood Pressure (mm Hg) on Second Day, before administration: 220 ± 6 mm Hg
[2]
  Blood Pressure (mm Hg) on Second Day, after 24 hours: 220 ± 6 mm Hg
